Results from patent US20020137929A1, “1 - (3-heterocyclylphenyl) isothiourea, -isourea, -guanidine and -amidine herbicidal agents” (Intellectual Property Department, BASF Aktiengesellschaft, priority 1998, published 2002).

Key:
MOOVA (Monochoria) = assay: Preemergence weed control under flooded paddy conditions; format: in vivo, Monochoria vaginalis; conditions: rated 3-4 weeks after treatment
Procedure, shortened: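 Seeds or propagules sown in silt loam kept flooded 1.5-3 cm; compounds in 50/50 acetone/water pipetted into flood water at about 0.0313 to 0.500 kg/ha. Greenhouse; visual 0-9 rating versus untreated control 3-4 weeks after treatment.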

[1] = system: IPOHE (Morningglory, Ivyleaf); assay: Postemergence herbicidal evaluation; format: in vivo, Ipomoea hederacea; conditions: postemergence
Procedure, shortened: (§1)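 Seedlings grown about two weeks were sprayed at 40 psi with compound dispersed in 50/50 acetone/water plus 0.5% TWEEN 20, at about 0.0156 to 0.500 kg/ha. Plants were kept in the greenhouse and scored 4–5 weeks later on a 0–9 visual scale against untreated controls.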

[2] = system: ECHORC (Watergrass (Calif.)); assay: Preemergence weed control under flooded paddy conditions; format: in vivo, Echinochloa oryzoides; conditions: rated 3-4 weeks after treatment
Procedure, shortened: (§2)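 Visual injury scored 0-9 against control three to four weeks post-treatment, greenhouse-grown. Application: acetone/water (50/50) solutions dosed directly into flood water (1.5-3 cm over silt loam, planted top 0.5 cm), roughly 0.0313 to 0.500 kg/ha active ingredient.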

[3] = system: TRZAWR (Wheat, Winter, cv Riband); assay: Postemergence herbicidal evaluation; format: in vivo, Triticum aestivum; conditions: postemergence
Procedure, shortened: as §1

[4] = system: IPOHE (Morningglory, Ivyleaf); assay: Preemergence herbicidal evaluation; format: in vivo, Ipomoea hederacea; conditions: rated 4-5 weeks after treatment
Procedure, shortened: (§3)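 Each species is sown separately in potting soil over roughly an inch of soil before any emergence. The soil surface then receives an aqueous acetone spray delivering about 0.0156 to 0.500 kg/ha of compound. After four to five weeks, injury is scored from 0 to 9 relative to a control.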

SETVI (Foxtail, Green) [5] = assay: Preemergence herbicidal evaluation; format: in vivo, Setaria viridis; conditions: rated 4-5 weeks after treatment
Procedure, shortened: as §3

[6] = system: SAGPY (Arrowhead (Pygmaea)); assay: Postemergence weed control under flooded paddy conditions; format: in vivo, Sagittaria pygmaea; conditions: postemergence weeds, 3-4 weeks after treatment
Procedure, shortened: (§4)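 Flood-water application, about 0.0313–0.500 kg/ha a.i. in aqueous/acetone 50/50 v/v; water depth 1.5–3 cm throughout. Weeds 3–5 cm, rice 1.5–2.5 leaf. Greenhouse; 0–9 visual rating vs control at 3–4 wk.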

GALAP (Galium) = assay: Postemergence herbicidal evaluation; format: in vivo, Galium aparine; conditions: postemergence
Procedure, shortened: as §1

SETVI (Foxtail, Green) [7] = assay: Postemergence herbicidal evaluation; format: in vivo, Setaria viridis; conditions: postemergence
Procedure, shortened: as §1

ZEAMX (Corn, Field) = assay: Preemergence herbicidal evaluation; format: in vivo, Zea mays; conditions: rated 4-5 weeks after treatment
Procedure, shortened: as §3

ECHCG (Barnyardgrass) = assay: Preemergence herbicidal evaluation; format: in vivo, Echinochloa crus-galli; conditions: rated 4-5 weeks after treatment
Procedure, shortened: as §3

CYPIR (Rice Flatsedge) = assay: Preemergence weed control under flooded paddy conditions; format: in vivo, Cyperus iria; conditions: rated 3-4 weeks after treatment
Procedure, shortened: as §2

ABUTH (Velvetleaf) = assay: Preemergence herbicidal evaluation; format: in vivo, Abutilon theophrasti; conditions: rated 4-5 weeks after treatment
Procedure, shortened: as §3

[8] = system: ECHORC (Watergrass (Calif.)); assay: Postemergence weed control under flooded paddy conditions; format: in vivo, Echinochloa oryzoides; conditions: postemergence weeds, 3-4 weeks after treatment
Procedure, shortened: as §4

Structure (SMILES): CCOC(=O)CN1C(=O)CSC1=Nc1cc(-n2c(=O)cc(C(F)(F)F)n(C)c2=O)c(F)cc1Cl [Compound 8, Ethyl 2-{{2-chloro-5-[3,6-dihydro-3-methyl-2,6-dioxo-4-(trifluoromethyl)-1(2H)pyrimidinyl]-4-fluorophenyl}imino}-4-oxo-3-thiazolidineacetate]
- Herbicidal rating MOOVA (MOOVA (Monochoria); 0.0313 kg/ha): 9.0
- Herbicidal rating MOOVA (MOOVA (Monochoria); 0.0625 kg/ha): 9.0
- Herbicidal rating MOOVA (MOOVA (Monochoria); 0.1250 kg/ha): 9.0
- Herbicidal rating MOOVA (MOOVA (Monochoria); 0.2500 kg/ha): 9.0
- IPOHE herbicidal rating ([1]; rate 0.0157 kg/ha): 9.0
- IPOHE herbicidal rating ([1]; rate 0.0313 kg/ha): 9.0
- IPOHE herbicidal rating ([1]; rate 0.0625 kg/ha): 9.0
- IPOHE herbicidal rating ([1]; rate 0.1250 kg/ha): 9.0
- Herbicidal rating ECHORC ([2]; 0.0313 kg/ha): 6.5
- Herbicidal rating ECHORC ([2]; 0.0625 kg/ha): 6.5
- Herbicidal rating ECHORC ([2]; 0.1250 kg/ha): 7.5
- Herbicidal rating ECHORC ([2]; 0.2500 kg/ha): 8.5
- TRZAWR herbicidal rating ([3]; rate 0.0157 kg/ha): 3.5
- TRZAWR herbicidal rating ([3]; rate 0.0313 kg/ha): 5.1
- TRZAWR herbicidal rating ([3]; rate 0.0625 kg/ha): 6.4
- TRZAWR herbicidal rating ([3]; rate 0.1250 kg/ha): 6.4
- IPOHE preemergence herbicidal rating ([4]; rate 0.0156 kg/ha): 1.1
- IPOHE preemergence herbicidal rating ([4]; rate 0.0313 kg/ha): 4.4
- IPOHE preemergence herbicidal rating ([4]; rate 0.0625 kg/ha): 6.4
- IPOHE preemergence herbicidal rating ([4]; rate 0.1250 kg/ha): 8.6
- IPOHE preemergence herbicidal rating ([4]; rate 0.2500 kg/ha): 8.6
- IPOHE preemergence herbicidal rating ([4]; rate 0.5000 kg/ha): 9.0
- SETVI preemergence herbicidal rating (SETVI (Foxtail, Green) [5]; rate 0.0156 kg/ha): 2.8
- SETVI preemergence herbicidal rating (SETVI (Foxtail, Green) [5]; rate 0.0313 kg/ha): 6.1
- SETVI preemergence herbicidal rating (SETVI (Foxtail, Green) [5]; rate 0.0625 kg/ha): 8.2
- SETVI preemergence herbicidal rating (SETVI (Foxtail, Green) [5]; rate 0.1250 kg/ha): 9.0
- SETVI preemergence herbicidal rating (SETVI (Foxtail, Green) [5]; rate 0.2500 kg/ha): 9.0
- SETVI preemergence herbicidal rating (SETVI (Foxtail, Green) [5]; rate 0.5000 kg/ha): 9.0
- Herbicidal rating SAGPY ([6]; rate 0.0313 kg/ha): 0.0
- Herbicidal rating SAGPY ([6]; rate 0.0625 kg/ha): 0.0
- Herbicidal rating SAGPY ([6]; rate 0.1250 kg/ha): 0.0
- Herbicidal rating SAGPY ([6]; rate 0.2500 kg/ha): 0.0
- GALAP herbicidal rating (GALAP (Galium); rate 0.0157 kg/ha): 3.0
- GALAP herbicidal rating (GALAP (Galium); rate 0.0313 kg/ha): 4.5
- GALAP herbicidal rating (GALAP (Galium); rate 0.0625 kg/ha): 6.3
- GALAP herbicidal rating (GALAP (Galium); rate 0.1250 kg/ha): 6.8
- SETVI herbicidal rating (SETVI (Foxtail, Green) [7]; rate 0.0313 kg/ha): 5.3
- SETVI herbicidal rating (SETVI (Foxtail, Green) [7]; rate 0.0625 kg/ha): 7.6
- SETVI herbicidal rating (SETVI (Foxtail, Green) [7]; rate 0.1250 kg/ha): 9.0
- ZEAMX preemergence herbicidal rating (ZEAMX (Corn, Field); rate 0.0156 kg/ha): 2.2
- ZEAMX preemergence herbicidal rating (ZEAMX (Corn, Field); rate 0.0313 kg/ha): 4.9
- ZEAMX preemergence herbicidal rating (ZEAMX (Corn, Field); rate 0.0625 kg/ha): 6.4
- ZEAMX preemergence herbicidal rating (ZEAMX (Corn, Field); rate 0.1250 kg/ha): 7.4
- ZEAMX preemergence herbicidal rating (ZEAMX (Corn, Field); rate 0.2500 kg/ha): 7.9
- ZEAMX preemergence herbicidal rating (ZEAMX (Corn, Field); rate 0.5000 kg/ha): 8.3
- ECHCG preemergence herbicidal rating (ECHCG (Barnyardgrass); rate 0.0156 kg/ha): 0.4
- ECHCG preemergence herbicidal rating (ECHCG (Barnyardgrass); rate 0.0313 kg/ha): 2.2
- ECHCG preemergence herbicidal rating (ECHCG (Barnyardgrass); rate 0.0625 kg/ha): 4.4
- ECHCG preemergence herbicidal rating (ECHCG (Barnyardgrass); rate 0.1250 kg/ha): 7.4
- ECHCG preemergence herbicidal rating (ECHCG (Barnyardgrass); rate 0.2500 kg/ha): 8.9
- ECHCG preemergence herbicidal rating (ECHCG (Barnyardgrass); rate 0.5000 kg/ha): 9.0
- Herbicidal rating CYPIR (CYPIR (Rice Flatsedge); 0.0313 kg/ha): 0.0
- Herbicidal rating CYPIR (CYPIR (Rice Flatsedge); 0.0625 kg/ha): 0.0
- Herbicidal rating CYPIR (CYPIR (Rice Flatsedge); 0.1250 kg/ha): 0.0
- Herbicidal rating CYPIR (CYPIR (Rice Flatsedge); 0.2500 kg/ha): 4.0
- ABUTH preemergence herbicidal rating (ABUTH (Velvetleaf); rate 0.0156 kg/ha): 7.3
- ABUTH preemergence herbicidal rating (ABUTH (Velvetleaf); rate 0.0313 kg/ha): 8.4
- ABUTH preemergence herbicidal rating (ABUTH (Velvetleaf); rate 0.0625 kg/ha): 8.7
- ABUTH preemergence herbicidal rating (ABUTH (Velvetleaf); rate 0.1250 kg/ha): 9.0
- ABUTH preemergence herbicidal rating (ABUTH (Velvetleaf); rate 0.2500 kg/ha): 9.0
- ABUTH preemergence herbicidal rating (ABUTH (Velvetleaf); rate 0.5000 kg/ha): 9.0
- Herbicidal rating ECHORC ([8]; rate 0.0313 kg/ha): 6.5
- Herbicidal rating ECHORC ([8]; rate 0.0625 kg/ha): 6.5
- Herbicidal rating ECHORC ([8]; rate 0.1250 kg/ha): 7.5
- Herbicidal rating ECHORC ([8]; rate 0.2500 kg/ha): 8.5
